The source of these data is US7485601B2, “Herbicide composition” (Sumitomo Chemical Company, Limited, priority 2001, dated 2009).

Data set [1] deals with yellow nutsedge (Cyperus esculentus). In words: Herbicide effect by foliar spray on pot-grown yellow nutsedge in greenhouse (Test Example 1). Format: in vivo. The settings on record: evaluated 25 days after treatment, level 0-10. As to the method:
(§1) Evaluation of phytotoxicity against a crop was shown by “no” when almost no phytotoxicity was observed, “low” when a low level phytotoxicity was observed, “medium” when a medium level phytotoxicity was observed and “high” when a high level phytotoxicity was observed.
(§2) A plastic pot of 11 cm in diameter and 8 cm in depth was filled with field soil. A tuber of yellow nutsedge (Cyperus esculentus) was planted and grown in a greenhouse for 21 days.
(§3) An emulsion of Compound A-1 was prepared by sufficiently mixing 5 parts of Compound A-1, 6 parts of Sorpol 3005×(surfactant, produced by Toho Chemical) and 89 parts of xylene.
(§4) Each of single use of an emulsion of Compound A-1, single use of an formulation of Chlorimuron-ethyl (commercial name: Classic, produced by Du Pont, containing 25% of Chlorimuron-ethyl), and a mixed composition of an emulsion of Compound A-1 and an formulation of Chlorimuron-ethyl, were diluted with water containing 1% Agri-dex (produced by Helena). Respective dilutions were uniformly sprayed from upper side onto foliages of yellow nutsedge grown as described above with a small sprayer such that the amounts of the active ingredients were the amounts shown in Table 4. […]
(§5) After the treatment, they were raised in a greenhouse for 25 days and the effect against weeds was evaluated. In addition, after 14 days of the treatment, the phytotoxicity to soybean was evaluated.

The subject of the next data set is soybean. Description: Phytotoxicity to soybean sown immediately after treatment (Test Example 1). Format: in vivo. The settings on record: evaluated after 14 days. How it is done: as §1, §2, §3, §4, §5

In the case of `CCOC(=O)c1ccccc1S(=O)(=O)NC(=O)Nc1nc(Cl)cc(OC)n1` [Chlorimuron-ethyl, ethyl 2-(4-chloro-6-methoxypyrimidin-2-ylcarbamoylsulfamoyl)benzoate], the “Herbicide Effect yellow nutsedge” value in data set [1] (5 g/ha active ingredient) was 1; in data set [1] (20 g/ha active ingredient), 2. Also, the Phytotoxicity soybean entry with soybean (5 g/ha active ingredient) and in the data set with soybean (20 g/ha active ingredient) was “no” throughout.
